# In paper doi:10.1101/2025.09.24.678246 (bioRxiv, 2025):
# Where “and” joins values, the source holds several entries; their conditions need not be identical. Equal entries are not always repeated. Where two headings read alike, the source gives them in different places.
# Tests used:
# BioA = BioA (Mycobacterium tuberculosis, UniProt P9WQ81); experiment: BioA inhibition assay (coupled BioA/BioD fluorescence displacement, IC50); type: biochemical; settings: 50 nM BioA
# Mtb H37Rv [1] = experiment: microbe, parasite or virus in culture; type: cell-based, Mycobacterium tuberculosis; settings: biotin-free medium; for MIC50: Mycobacterium tuberculosis, H37RV
# in vivo = settings: female, CD-1, mouse; for Vd / clearance / half-life: iv; for AUC(0-inf) / bioavailability: po, 25 mg/kg
# Mtb H37Rv [2] = experiment: C48 biotin deficient TB efficacy study; type: in vivo, BALB/c mice; settings: 25mg/kg
# M. bovis 0AF2122 = experiment: microbe, parasite or virus in culture; type: cell-based; settings: Mycobacterium tuberculosis variant bovis
# M. africanum = experiment: MIC screening against M. africanum; type: cell-based; settings: Mycobacterium tuberculosis, MTBC
# Mtb H37Rv [3] = type: in vivo, BALB/c mice; settings: for bacterial burden per mouse, Fig. 5B: 10 mg/kg
# [4] = p.o. 25 mg/kg, CD-1 mice
# [5] = day 7 (values identical to Control: baseline)
# Sequence of BioA (P9WQ81 whole entry, looked up): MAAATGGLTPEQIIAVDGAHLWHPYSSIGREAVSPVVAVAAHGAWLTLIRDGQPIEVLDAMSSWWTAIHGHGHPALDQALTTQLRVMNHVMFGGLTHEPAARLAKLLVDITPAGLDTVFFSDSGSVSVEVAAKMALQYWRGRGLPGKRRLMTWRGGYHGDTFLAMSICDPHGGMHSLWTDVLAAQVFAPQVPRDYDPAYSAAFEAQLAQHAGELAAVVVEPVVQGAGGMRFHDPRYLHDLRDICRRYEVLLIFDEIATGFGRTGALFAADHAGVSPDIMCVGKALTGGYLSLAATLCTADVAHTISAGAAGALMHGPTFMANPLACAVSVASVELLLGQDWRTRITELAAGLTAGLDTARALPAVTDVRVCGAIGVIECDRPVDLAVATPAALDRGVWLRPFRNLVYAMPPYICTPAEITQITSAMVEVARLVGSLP
smiles,measurement,setting,value
O=C1CCc2cc(N3CCN(C(=O)c4ccc(F)c(Br)c4)CC3)ccc21 [C21],IC50,BioA,81 nM
same,activity,BioA; C21 1.58114 nM,106%
same,activity at 0.00158114 µM,BioA; C21 1.58114 nM,106%
same,activity,BioA; C21 5 nM,98% and 96.4%
same,activity at 0.005 µM,BioA; C21 5 nM,102%
same,activity,BioA; C21 15.8114 nM,91.7% and 90.1%
same,activity at 0.0158114 µM,BioA; C21 15.8114 nM,91.3%
same,activity,BioA; C21 50 nM,59.9% and 51.5%
same,activity at 0.05 µM,BioA; C21 50 nM,59.5%
same,activity,BioA; C21 158.114 nM,31.6% and 29.9%
same,activity at 0.158114 µM,BioA; C21 158.114 nM,32%
same,activity,BioA; C21 500 nM,25%
same,activity at 0.5 µM,BioA; C21 500 nM,25.1%
same,activity,BioA; C21 1581.14 nM,18.2% and 16.8%
same,activity at 1.58114 µM,BioA; C21 1581.14 nM,19.4%
same,activity,BioA; C21 5000 nM,7.65% and 7.4%
same,activity at 5 µM,BioA; C21 5000 nM,8.48%
same,MIC50,Mtb H37Rv [1],1.9 µM
same,increase in potency against Mtb versus 6,Mtb H37Rv [1],6 fold
same,Vd,in vivo,0.37 L/kg
same,clearance,in vivo,5.3 mL/min/kg
same,half-life,in vivo,49.2 min
same,AUC(0-inf),in vivo,108000 ng·h/mL
same,bioavailability,in vivo,> 100%
"NNC(=O)c1ccncc1 [INH, isoniazid, reference compound]","bacterial burden per mouse, Fig. 5C",Mtb H37Rv [2]; [5],360 and 1090 and 400 and 320 and 700 and 200
same,"bacterial burden per mouse, Fig. 5D (second organ, not given)",Mtb H37Rv [2]; [5],1
same,"bacterial burden per mouse, Fig. 5D (second organ, not given)",Mtb H37Rv [2]; day 21,1
same,"bacterial burden per mouse, Fig. 5C",Mtb H37Rv [2]; day 28,1
same,"bacterial burden per mouse, Fig. 5D (second organ, not given)",Mtb H37Rv [2]; day 28,1
"CC(=O)NC[C@H]1CN(c2ccc(N3CCOCC3)c(F)c2)C(=O)O1 [Linezolid, reference compound]",MIC,M. bovis 0AF2122,1.56 µM
same,MIC,M. africanum,1.56 µM
"CO[C@H]1/C=C/O[C@@]2(C)Oc3c(C)c(O)c4c(O)c(c(/C=N/N5CCN(C)CC5)c(O)c4c3C2=O)NC(=O)/C(C)=C\C=C\[C@H](C)[C@H](O)[C@@H](C)[C@@H](O)[C@@H](C)[C@H](OC(C)=O)[C@@H]1C [Rifampicin, rifampicin, reference compound]","bacterial burden per mouse, Fig. 5B",Mtb H37Rv [3]; day 14 (values identical to Vehicle Control: baseline),24500 and 14500 and 16500 and 43500 and 12750
same,"bacterial burden per mouse, Fig. 5B",Mtb H37Rv [3]; day 28,8250 and 7500 and 19750 and 6250 and 14250
same,"bacterial burden per mouse, Fig. 5B",Mtb H37Rv [3]; day 42,2875 and 750 and 950 and 2450 and 2025
same,spleen CFU,"Mtb H37Rv [3]; Rifampicin 10mg/kg p.o., Day 42, standard acute model, BALB/c, per mouse",0 CFU
CC(=O)c1ccc(N2CCN(C(=O)c3ccc4c(c3)OCO4)CC2)cc1 [compound 6],IC50,BioA,110 nM
same,MIC50,Mtb H37Rv [1],12 µM
same,plasma concentration,[4]; 0 h,0
same,plasma concentration,"[4]; 3 h, 25 mg/kg",32.3 and 18.2 and 24.6
same,plasma concentration,[4]; 24 h,1
same,Vd,in vivo,0.54 L/kg
same,clearance,in vivo,30.6 mL/min/kg
same,half-life,in vivo,12 min
same,AUC(0-inf),in vivo,460 ng·h/mL
same,bioavailability,in vivo,3.4%
